Test results reported in ChEMBL document CHEMBL4000244, “Probing A-form DNA: A fluorescent aminosugar probe and dual recognition by anthraquinone-neomycin conjugates” (Bioorg Med Chem, 2017).

Tests used:
[1] = Binding affinity to 5'-GGGGGGGC-3' DNA hairpin assessed as change in fluorescence intensity at 1 uM after 45 mins by fluorescence quenching analysis relative to control
[2] = Binding affinity to 5'-GCCCGGGC-3' DNA hairpin assessed as change in fluorescence intensity at 1 uM after 45 mins by fluorescence quenching analysis relative to control
[3] = Binding affinity to 5'-GCGGGCGC-3' DNA hairpin assessed as change in fluorescence intensity at 1 uM after 45 mins by fluorescence quenching analysis relative to control
[4] = Binding affinity to 5'-CGCCGGGC-3' DNA hairpin assessed as change in fluorescence intensity at 1 uM after 45 mins by fluorescence quenching analysis relative to control
[5] = Binding affinity to 5'-CCCGCGCG-3' DNA hairpin assessed as change in fluorescence intensity at 1 uM after 45 mins by fluorescence quenching analysis relative to control
[6] = Binding affinity to 5'-GCCGGGCC-3' DNA hairpin assessed as change in fluorescence intensity at 1 uM after 45 mins by fluorescence quenching analysis relative to control
[7] = Binding affinity to 5'-CCCGGCGG-3' DNA hairpin assessed as change in fluorescence intensity at 1 uM after 45 mins by fluorescence quenching analysis relative to control
[8] = Binding affinity to 5'-GGCGGCGG-3' DNA hairpin assessed as change in fluorescence intensity at 1 uM after 45 mins by fluorescence quenching analysis relative to control
[9] = Binding affinity to 5'-CCGGGCGC-3' DNA hairpin assessed as change in fluorescence intensity at 1 uM after 45 mins by fluorescence quenching analysis relative to control
[10] = Binding affinity to 5'-GGGCCGGC-3' DNA hairpin assessed as change in fluorescence intensity at 1 uM after 45 mins by fluorescence quenching analysis relative to control
[11] = Binding affinity to d(G4C4)2 DNA major groove assessed as change in electrostatic potential at 10 uM at pH 4.65 to 9.78 by UV-Visible spectrophotometric method
[12] = Binding affinity to 5'-GGCGCGGC-3' DNA hairpin assessed as change in fluorescence intensity at 1 uM after 45 mins by fluorescence quenching analysis relative to control
[13] = Binding affinity to 5'-CGCGCGGC-3' DNA hairpin assessed as change in fluorescence intensity at 1 uM after 45 mins by fluorescence quenching analysis relative to control
[14] = Binding affinity to 5'-GCGGGGGG-3' DNA hairpin assessed as change in fluorescence intensity at 1 uM after 45 mins by fluorescence quenching analysis relative to control
[15] = Binding affinity to 5'-CGCGGCGG-3' DNA hairpin assessed as change in fluorescence intensity at 1 uM after 45 mins by fluorescence quenching analysis relative to control
[16] = Binding affinity to 5'-GGGGCCGG-3' DNA hairpin assessed as change in fluorescence intensity at 1 uM after 45 mins by fluorescence quenching analysis relative to control
[17] = Binding affinity to 5'-GGCCGCGG-3' DNA hairpin assessed as change in fluorescence intensity at 1 uM after 45 mins by fluorescence quenching analysis relative to control
[18] = Binding affinity to 5'-CGCGCCGC-3' DNA hairpin assessed as change in fluorescence intensity at 1 uM after 45 mins by fluorescence quenching analysis relative to control
[19] = Binding affinity to 5'-CGCCGCGC-3' DNA hairpin assessed as change in fluorescence intensity at 1 uM after 45 mins by fluorescence quenching analysis relative to control
[20] = Binding affinity to 5'-GCGGCCGG-3' DNA hairpin assessed as change in fluorescence intensity at 1 uM after 45 mins by fluorescence quenching analysis relative to control
[21] = Binding affinity to 5'-GCGCGCCC-3' DNA hairpin assessed as change in fluorescence intensity at 1 uM after 45 mins by fluorescence quenching analysis relative to control
[22] = Binding affinity to 5'-CCGCCCCG-3' DNA hairpin assessed as change in fluorescence intensity at 1 uM after 45 mins by fluorescence quenching analysis relative to control
[23] = Binding affinity to 5'-CCGGCCCG-3' DNA hairpin assessed as change in fluorescence intensity at 1 uM after 45 mins by fluorescence quenching analysis relative to control
[24] = Binding affinity to 5'-CCCCCCGG-3' DNA hairpin assessed as change in fluorescence intensity at 1 uM after 45 mins by fluorescence quenching analysis relative to control
[25] = Binding affinity to 5'-CGGGCCCC-3' DNA hairpin assessed as change in fluorescence intensity at 1 uM after 45 mins by fluorescence quenching analysis relative to control
[26] = Binding affinity to 5'-GGGCGGCG-3' DNA hairpin assessed as change in fluorescence intensity at 1 uM after 45 mins by fluorescence quenching analysis relative to control
[27] = Binding affinity to 5'-CCCGCCCG-3' DNA hairpin assessed as change in fluorescence intensity at 1 uM after 45 mins by fluorescence quenching analysis relative to control
[28] = Binding affinity to 5'-CGCCGGGG-3' DNA hairpin assessed as change in fluorescence intensity at 1 uM after 45 mins by fluorescence quenching analysis relative to control
[29] = Binding affinity to 5'-CCCGCGCC-3' DNA hairpin assessed as change in fluorescence intensity at 1 uM after 45 mins by fluorescence quenching analysis relative to control
[30] = Binding affinity to 5'-GCCCGGCG-3' DNA hairpin assessed as change in fluorescence intensity at 1 uM after 45 mins by fluorescence quenching analysis relative to control
[31] = Binding affinity to 5'-GGCCGCCC-3' DNA hairpin assessed as change in fluorescence intensity at 1 uM after 45 mins by fluorescence quenching analysis relative to control
[32] = Binding affinity to 5'-CCCCGCGC-3' DNA hairpin assessed as change in fluorescence intensity at 1 uM after 45 mins by fluorescence quenching analysis relative to control
[33] = Binding affinity to 5'-GCGCGGCG-3' DNA hairpin assessed as change in fluorescence intensity at 1 uM after 45 mins by fluorescence quenching analysis relative to control
[34] = Binding affinity to 5'-CCCGGCCC-3' DNA hairpin assessed as change in fluorescence intensity at 1 uM after 45 mins by fluorescence quenching analysis relative to control
[35] = Binding affinity to 5'-GGGCGCCG-3' DNA hairpin assessed as change in fluorescence intensity at 1 uM after 45 mins by fluorescence quenching analysis relative to control
[36] = Binding affinity to 5'-GCCCCCCG-3' DNA hairpin assessed as change in fluorescence intensity at 1 uM after 45 mins by fluorescence quenching analysis relative to control

## NCC1O[C@H](O[C@H]2[C@@H](O)[C@H](O[C@@H]3[C@@H](O)[C@H](N)C[C@H](N)[C@H]3O[C@H]3O[C@H](CN)[C@@H](O)[C@H](O)[C@H]3N)O[C@@H]2CSCCNC(=O)CCSCC(=O)Nc2ccc(-c3c4ccc(=O)cc-4oc4cc(O)ccc34)c(C(=O)O)c2)[C@H](N)[C@@H](O)[C@@H]1O (stereo partly specified)
[1]
  Activity: 29.8%
[2]
  Activity: 41.1%
[3]
  Activity: 53.7%
[4]
  Activity: 49.5%
[5]
  Activity: 51.8%
[6]
  Activity: 51%
[7]
  Activity: 39.8%
[8]
  Activity: 46.8%
[9]
  Activity: 43.6%
[10]
  Activity: 44.4%
[11]
  Activity: -1.01 kT/e
[12]
  Activity: 49.4%
[13]
  Activity: 43.8%
[14]
  Activity: 38.1%
[15]
  Activity: 52%
[16]
  Activity: 28.3%
[17]
  Activity: 49.8%
[18]
  Activity: 50.9%
[19]
  Activity: 46.6%
[20]
  Activity: 40.9%
[21]
  Activity: 49.8%
[22]
  Activity: 49.3%
[23]
  Activity: 48%
[24]
  Activity: 30.9%
[25]
  Activity: 35.1%
[26]
  Activity: 52.7%
[27]
  Activity: 46.5%
[28]
  Activity: 47.3%
[29]
  Activity: 63.4%
[30]
  Activity: 51.9%
[31]
  Activity: 37.9%
[32]
  Activity: 41.4%
[33]
  Activity: 49.1%
[34]
  Activity: 40.8%
[35]
  Activity: 50.6%
[36]
  Activity: 19.8%
